Measurements reported in patent US20230210831A1, “CHRONIC KIDNEY DISEASE TREATMENT OR PREVENTION METHOD” (Japan Tobacco Inc., priority 2019, published 2023).
Values joined by “and” are separate entries in the source; they are usually repeats but may differ in a detail not shown here. Equal values may be shown once.

How the values were obtained:
Type in all cases: cell-based
[1] = test system: Salmonella typhimurium TA98; assay: Ames test (reverse mutation test), TA98; details: for Number of revertant colonies TA98: S9 Mix -; for Number of revertant colonies: TA98, +S9 mix
Description: (§1) The solvent used herein was dimethyl sulfoxide (DMSO, 100 µL/plate).
(§2) The mixtures were preincubated at 37° C. for 20 minutes while shaking. […] Two plates per treatment were used.

Escherichia coli WP2uvrA = assay: Ames test (reverse mutation test), WP2uvrA; details: for Number of revertant colonies WP2uvrA: S9 Mix -; for Number of revertant colonies: WP2uvrA, +S9 mix
Description: as §1, §2

[2] = test system: Salmonella typhimurium TA1535; assay: Ames test (reverse mutation test), TA1535
Description: as §1, §2

[3] = test system: Salmonella typhimurium TA1537; assay: Ames test (reverse mutation test), TA1537; details: for Number of revertant colonies TA1537: S9 Mix -; for Number of revertant colonies: TA1537, +S9 mix
Description: as §1, §2

[4] = test system: Salmonella typhimurium TA100; assay: Ames test (reverse mutation test), TA100; details: for Number of revertant colonies TA100: S9 Mix -; for Number of revertant colonies: TA100, +S9 mix
Description: as §1, §2

With `CC(C)(OCc1cc(F)cc(-c2cc(N)nn2-c2ccc(F)cc2)c1)C(F)(F)F` [Metabolite D] the “Number of revertant colonies TA98” value ([1]; dose 2.3 µg/plate) was 27, the “Number of revertant colonies TA98” value ([1]; dose 6.9 µg/plate) was 22 and the “Number of revertant colonies TA98” value ([1]; dose 21 µg/plate) was 23. The “Number of revertant colonies TA98” value ([1]; dose 62 µg/plate) was 25, the “Number of revertant colonies TA98” value ([1]; dose 185 µg/plate) was 32 and the “Number of revertant colonies TA98” value ([1]; dose 556 µg/plate) was 21. The “Number of revertant colonies TA98” value ([1]; dose 1667 µg/plate) was 23, the “Number of revertant colonies TA98” value ([1]; dose 5000 µg/plate) was 21 and the “Number of revertant colonies” value ([1]; 2.3 µg/plate) was 39. For the same molecule, the “Number of revertant colonies” value ([1]; 6.9 µg/plate) was 42, the “Number of revertant colonies” value ([1]; 21 µg/plate) was 52 and the “Number of revertant colonies” value ([1]; 62 µg/plate) was 47. For the same molecule, the “Number of revertant colonies” value ([1]; 185 µg/plate) was 49, the “Number of revertant colonies” value ([1]; 556 µg/plate) was 51 and the “Number of revertant colonies” value ([1]; 1667 µg/plate) was 57. The “Number of revertant colonies” value ([1]; 5000 µg/plate) was 88, the “potential to induce reverse mutations” value ([1]; TA98 with S9 mix) was “showed potential to induce reverse mutations” and the “Number of revertant colonies WP2uvrA” value (Escherichia coli WP2uvrA; dose 2.3 µg/plate) was 25. The “Number of revertant colonies WP2uvrA” value (Escherichia coli WP2uvrA; dose 6.9 µg/plate) was 27, the “Number of revertant colonies WP2uvrA” value (Escherichia coli WP2uvrA; dose 21 µg/plate) was 22 and the “Number of revertant colonies WP2uvrA” value (Escherichia coli WP2uvrA; dose 62 µg/plate) was 21. For the same molecule, the “Number of revertant colonies WP2uvrA” value (Escherichia coli WP2uvrA; dose 185 µg/plate) was 22, the “Number of revertant colonies WP2uvrA” value (Escherichia coli WP2uvrA; dose 556 µg/plate) was 16 and the “Number of revertant colonies WP2uvrA” value (Escherichia coli WP2uvrA; dose 1667 µg/plate) was 18. The “Number of revertant colonies WP2uvrA” value (Escherichia coli WP2uvrA; dose 5000 µg/plate) was 20, the “Number of revertant colonies” value (Escherichia coli WP2uvrA; 2.3 µg/plate) was 31 and the “Number of revertant colonies” value (Escherichia coli WP2uvrA; 6.9 µg/plate) was 18. The “Number of revertant colonies” value (Escherichia coli WP2uvrA; 21 µg/plate) was 24, the “Number of revertant colonies” value (Escherichia coli WP2uvrA; 62 µg/plate) was 18 and the “Number of revertant colonies” value (Escherichia coli WP2uvrA; 185 µg/plate) was 23. For the same molecule, the “Number of revertant colonies” value (Escherichia coli WP2uvrA; 556 µg/plate) was 32, the “Number of revertant colonies” value (Escherichia coli WP2uvrA; 1667 µg/plate) was 28 and the “Number of revertant colonies” value (Escherichia coli WP2uvrA; 5000 µg/plate) was 28. The “Number of revertant colonies TA1535” value ([2]; S9 Mix -, dose 1667 µg/plate) was 6, the “Number of revertant colonies” value ([2]; TA1535, +S9 mix, 1667 µg/plate) was 7 and the “Number of revertant colonies TA1537” value ([3]; dose 2.3 µg/plate) was 11. The “Number of revertant colonies TA1537” value ([3]; dose 6.9 µg/plate) was 13, the “Number of revertant colonies TA1537” value ([3]; dose 21 µg/plate) was 11 and the “Number of revertant colonies TA1537” value ([3]; dose 62 µg/plate) was 7. For the same molecule, the “Number of revertant colonies TA1537” value ([3]; dose 185 µg/plate) was 6, the “Number of revertant colonies TA1537” value ([3]; dose 556 µg/plate) was 7 and the “Number of revertant colonies TA1537” value ([3]; dose 1667 µg/plate) was 6. For the same molecule, the “Number of revertant colonies TA1537” value ([3]; dose 5000 µg/plate) was 8, the “Number of revertant colonies” value ([3]; 2.3 µg/plate) was 14 and the “Number of revertant colonies” value ([3]; 6.9 µg/plate) was 20. For the same molecule, the “Number of revertant colonies” value ([3]; 21 µg/plate) was 13, the “Number of revertant colonies” value ([3]; 62 µg/plate) was 18 and the “Number of revertant colonies” value ([3]; 185 µg/plate) was 15. The “Number of revertant colonies” value ([3]; 556 µg/plate) was 15, the “Number of revertant colonies” value ([3]; 1667 µg/plate) was 19 and the “Number of revertant colonies” value ([3]; 5000 µg/plate) was 24. For the same molecule, the “potential to induce reverse mutations” value ([3]; TA1537 with S9 mix) was “showed potential to induce reverse mutations”, the “Number of revertant colonies TA100” value ([4]; dose 2.3 µg/plate) was 99 and the “Number of revertant colonies TA100” value ([4]; dose 6.9 µg/plate) was 98. For the same molecule, the “Number of revertant colonies TA100” value ([4]; dose 21 µg/plate) was 71, the “Number of revertant colonies TA100” value ([4]; dose 62 µg/plate) was 96 and the “Number of revertant colonies TA100” value ([4]; dose 185 µg/plate) was 85. The “Number of revertant colonies TA100” value ([4]; dose 556 µg/plate) was 86, the “Number of revertant colonies TA100” value ([4]; dose 1667 µg/plate) was 69 and the “Number of revertant colonies TA100” value ([4]; dose 5000 µg/plate) was 82. The “Number of revertant colonies” value ([4]; 2.3 µg/plate) was 139, the “Number of revertant colonies” value ([4]; 6.9 µg/plate) was 203 and the “Number of revertant colonies” value ([4]; 21 µg/plate) was 237. For the same molecule, the “Number of revertant colonies” value ([4]; 62 µg/plate) was 185, the “Number of revertant colonies” value ([4]; 185 µg/plate) was 151 and the “Number of revertant colonies” value ([4]; 556 µg/plate) was 119. For the same molecule, the “Number of revertant colonies” value ([4]; 1667 µg/plate) was 100 and the “Number of revertant colonies” value ([4]; 5000 µg/plate) was 98.

`[N-]=[N+]=[N-].[Na+]` [SA] was tested, and the “Number of revertant colonies” value ([2]; TA1535, -S9 mix, 0.5 µg/plate (positive control)) was 217 and 222.
